The results in this text go back to publication PMC9944328 (Nature Communications, 2023).

“Also recorded” adds a separate entry of the source.

In assay [1] the test system is SSTR2. The assay is described as follows: SSTR2 internalization by ELISA, HEK293, 30 min 37 °C (wild-type). The assay is classed as cell-based, human. Conditions: for Internalization of wild-type SSTR2: same concentration for both drugs, also confocal and Bystander BRET. As for the experimental part: HEK293 cells were seeded into 96-well microplates at a density of 4 × 10^4 cells/well and cultured for 24 h at 37 °C with 5% CO2 and were transfected using the same procedure as the cAMP accumulation assay. The plates were washed with washing buffer (PBS) the day after transfection, and were fixed with 4% formalin at room temperature for 30 min. Cells were washed with washing buffer and blocked with PBS supplemented with 5% BSA for 1 h at room temperature. After that, cells were incubated with anti-Flag antibody (1:1000 diluted with PBS containing 5% BSA, Proteintech: 66008-4-Ig) for 1 h at room temperature. After 1 h incubation, cells were washed with washing buffer and incubating with HRP-conjugated secondary antibody for 2 h at room temperature. After incubating and washing, 50 μl of chromogenic solution was added to each well, and reacted at room temperature for 10 min, and then 0.5 M HCl were added to stop the reaction.
All data presented are means at least three independent experiments.
A general note: ELISA stands for enzyme-linked immunosorbent assay.

The next assay concerns GH3 cells. The assay is described as follows: Cell apoptosis assay, Annexin V-FITC/PI flow cytometry, GH3 cells overexpressing SSTR2, 48 h. The assay is classed as cell-based, rat.
Assay [2] deals with SSTR2. The assay is described as follows: Bias factor (β value), Gi cAMP inhibition versus β-arrestin recruitment. The assay is classed as cell-based, human. Conditions: for Effect of microswitch mutations: CWxP, PIF, DRY and NPxxY motif mutants versus wild-type SSTR2; for Effect of mutants on both signals: D122(3.32) and Q126(3.36) mutants. As to the method:
The levels of the intracellular 3′, 5′-cyclic AMP (cAMP) were measured by the GloSensor cAMP assay (Promega) as described in the previous studies[28],[41] which has been widely used. The human full-length SSTRs and mutants were cloned into the pcDNA3.1+ vector with a HA signal sequence followed by a Flag tag at the N-terminus. […] Cells were then co-transfected with SSTR wild-type or mutants and GloSensor plasmids. After 24 h of transfection, the cells were dissociated with TrypLE™ Express Enzyme (1X) (Thermo Fisher Scientific) and collected by centrifugation at 500 × g for 5 min. Then the collected cells were suspended in Hank’s balanced salt solution [HBSS (Thermo Fisher Scientific)] supplemented with […] potassium salt solution (YEASEN), and then the suspension cells were seeded into 96-well plates with 90 μl/well. After incubating at room temperature for 40 min, 5 μM forskolin and ligands diluted in HBSS were added to each well and the plates were incubated at room temperature for 15 min. […] signals were measured using the Synergy H1 microplate reader (BioTek) and the data presented are means of at least three independent experiments.
The NanoBiT β-arrestin 1 recruitment assays were carried out according to the method described previously. […] Human full-length SSTR wild-type and mutant vectors were C-terminally fused with a 15-amino acid flexible linker and the small fragment (SmBiT). HEK293 cells were seeded into six-well microplates at a density of 1.0 × 10^6 cells/well and cultured for 24 h at 37 °C with 5% CO2. After that, cells were co-transfected with pcDNA3.1+ vectors encoding SSTR wild-type or mutants and human β-arrestin 1. After transfecting for 24 h, the transfected cells were suspended and seeded into white 96-well plates, and then cultured at 37 °C overnight. After that the medium in each well was exchanged for 90 μl of 0.01% bovine serum albumin containing 20 μl of 50 μM coelenterazine h (Carbosynth) diluted in the HBSS assay buffer and incubated for 40 min at room temperature. Then, ligands diluted in the assay buffer was added to each well and the luminescence intensity was measured using the Synergy H1 microplate reader and detected at room temperature in a time period. All data presented are means of at least three independent experiments.
All data in this study were analyzed using GraphPad Prism 7 and were expressed as the error bars and the standard error of means ± SEM from at least n = 3 biologically independent experiments performed in triplicate. All curve data were normalized to the maximal wild-type and processed using a sigmoidal dose response curve in GraphPad Prism 7. Statistical differences between conditions were determined by one-way of variance ANOVA with Dunnett’s test or T-test.

Experimental for GH3 cells: The rat pituitary GH3 cells (ATCC, CCL-82.1) were seeded in 12-well plates at 1.5 × 10^5/well. […] Then, the cells were collected for the apoptosis assay according to the instruction of the Annexin V-FITC/PI apoptosis detection kit (BD Biosciences). Briefly, the cells were washed with cold PBS and resuspended in 1 × binding buffer. Then, 5 μl of Annexin V-FITC was added and incubated for 10 min and stained with 5 μl of PI for 5 min in the dark at room temperature. All samples were acquired by a Novocyte flow cytometer (ACEA Biosciences, China), and data were analyzed with NovoExpress^TM software.

Turning to `C[C@@H](O)[C@@H]1NC(=O)[C@H](CCCCN)NC(=O)[C@@H](Cc2c[nH]c3ccccc23)NC(=O)[C@H](Cc2ccccc2)NC(=O)[C@@H](NC(=O)[C@H](N)Cc2ccccc2)CSSC[C@@H](C(=O)N[C@H](CO)[C@@H](C)O)NC1=O` [octreotide], the “Internalization of wild-type SSTR2” value in the assay with SSTR2 [1] is “obviously internalized”. For the same molecule, the Proapoptotic activity result in the assay on GH3 cells is “able to activate proapoptotic pathways”. For the same molecule, in the assay with SSTR2 [2], the “Effect of microswitch mutations” value is “decreased the potency of β-arrestin recruitment more markedly than the activation ability of Gi signaling”; the “Effect of mutants on both signals” value is “markedly affected both β-arrestin and Gi signal”.

As to `N#Cc1cccc(-c2ccc3ncc(-c4cc(F)cc(F)c4)c(N4CCC(N)CC4)c3c2)c1O` [paltusotine], the Receptor internalization entry in the assay on SSTR2 [1] (SSTR2 WT, compared with octreotide, Fig. 1d–f) is reported as “less receptor internalization”. In addition, the “Internalization of wild-type SSTR2” value in the assay on SSTR2 [1] was “reduced”. Besides, in the assay with GH3 cells, the “Apoptotic rate versus octreotide” value is on record as “increased apoptotic rate” and the Proapoptotic activity entry was “able to activate proapoptotic pathways”. Further, in the assay on SSTR2 [2], the “Effect of microswitch mutations” value is given as “decreased the potency of β-arrestin recruitment more markedly than the activation ability of Gi signaling”; the “Effect of mutants on both signals” value was “markedly affected both β-arrestin and Gi signal”. Moreover, the Signal bias result in the assay on SSTR2 [2] (SSTR2, compared with octreotide) was “more G protein-biased ligand than octreotide; also recorded: better G-protein-biased agonist of SSTR2 compared with octreotide”.
